Data published in ChEMBL document CHEMBL6074684, “Structure-activity relationship study of novel evodiamine amino acid conjugates with potent anti-colorectal cancer efficacy” (Eur J Med Chem, 2025).
In brackets after ≈: the same amount, converted by molar mass. Activity calls are given as the source filed them. No cut-off for these calls is given here.

Legend:
[1] = tested on: Mitochondrial membrane; assay: Induction of mitochondrial membrane potential loss in human LoVo cells assessed as TMRE positive cells at 90 nM incubated for 24 hrs by TMRE staining based flow cytometric analysis (reference value: 95.93 %); assay type: cell membranes
[2] = Stability of compound at pH 4.6 assessed as residual rate measured after 2 days; assay type: physicochemical; conditions: buffer, time 2 day, read-out: Stability
[3] = tested on: RKO; assay: Induction of morphological changes in human RKO cells assessed as appearance of contracted nucleus incubated for 24 hrs by Giemsa staining based microscopic analysis; assay type: functional, cell-based; conditions: dose 10-90 nM
[4] = Stability of compound in rat plasma assessed as half-life; assay type: ADME, cell-free
[5] = tested on: RKO; assay: Cell cycle arrest in human RKO cells assessed as accumulation of cells at G2 phase at 30 nM incubated for 24 hrs by […]PI staining based flow cytometric analysis (reference value: 20.07 %); assay type: functional
[6] = tested on: RKO; assay: Cell cycle arrest in human RKO cells assessed as accumulation of cells at S phase at 10 nM incubated for 24 hrs by […]PI staining based flow cytometric analysis (reference value: 43.36 %); assay type: functional
[7] = Chemical stability of compound in McCoy's 5A cell culture medium containing 1 % DMSO assessed as (S)-3-fluoro-14-(3-fluorophenyl)-10-hydroxy-8,13,13b,14-tetrahydroindolo[2',3':3,4]pyrido[2,1-b]quinazolin-5(7H)-one release by measuring retention time at 100 uM incubated for 24 hrs by HPLC analysis; assay type: physicochemical
[8] = Cmax in male Sprague-Dawley rat at 50 mg/kg, ip measured after 24 hrs by LC-MS/MS analysis; assay type: ADME, organism-based; conditions: in vivo
[9] = biological target: T1, DNA topoisomerase 1 (Homo sapiens) (UniProt P11387); assay: Inhibition of topoisomerase 1 (unknown origin) mediated DNA relaxation at 100 uM preincubated for 20 mins followed by pBR322 plasmid DNA addition and measured after 15 mins by red nucleic acid gel staining based agarose gel electrophoresis; conditions: time 35.0 min
T1 sequence (whole entry): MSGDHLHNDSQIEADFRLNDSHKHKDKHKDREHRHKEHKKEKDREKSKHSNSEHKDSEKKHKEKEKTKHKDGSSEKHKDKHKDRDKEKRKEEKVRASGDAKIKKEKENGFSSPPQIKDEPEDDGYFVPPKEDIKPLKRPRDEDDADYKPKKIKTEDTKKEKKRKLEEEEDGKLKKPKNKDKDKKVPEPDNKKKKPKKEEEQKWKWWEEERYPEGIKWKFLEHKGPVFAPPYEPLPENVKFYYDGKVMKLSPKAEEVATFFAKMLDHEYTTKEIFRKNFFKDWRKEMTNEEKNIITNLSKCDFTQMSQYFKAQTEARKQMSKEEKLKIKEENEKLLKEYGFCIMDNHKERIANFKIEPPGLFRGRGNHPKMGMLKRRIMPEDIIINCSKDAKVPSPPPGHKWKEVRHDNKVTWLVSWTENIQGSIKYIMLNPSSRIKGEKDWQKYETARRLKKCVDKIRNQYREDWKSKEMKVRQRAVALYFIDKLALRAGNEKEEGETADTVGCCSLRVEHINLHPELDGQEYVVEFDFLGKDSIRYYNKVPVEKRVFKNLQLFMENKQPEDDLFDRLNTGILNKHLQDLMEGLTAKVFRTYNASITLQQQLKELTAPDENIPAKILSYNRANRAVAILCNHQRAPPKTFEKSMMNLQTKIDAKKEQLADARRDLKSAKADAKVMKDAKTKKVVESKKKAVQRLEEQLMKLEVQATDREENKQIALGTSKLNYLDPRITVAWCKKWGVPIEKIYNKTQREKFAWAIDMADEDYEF

[10] = tested on: LoVo; assay: Cell cycle arrest in human LoVo cells assessed as accumulation of cells at G1 phase cells at 30 nM incubated for 24 hrs by […]PI staining based flow cytometric analysis (reference value: 29.69 %); assay type: functional
[11] = tested on: RKO; assay: Cell cycle arrest in human RKO cells assessed as accumulation of cells at S phase at 30 nM incubated for 24 hrs by […]PI staining based flow cytometric analysis (reference value: 43.36 %); assay type: functional
[12] = tested on: RKO; assay: Induction of morphological changes in human RKO cells assessed as appearance of condensed morphology incubated for 24 hrs by Giemsa staining based microscopic analysis; assay type: functional, cell-based; conditions: dose 10-90 nM
[13] = Stability of compound at pH 5.5 assessed as residual rate measured after 2 days; assay type: physicochemical; conditions: buffer, time 2 day, read-out: Stability
[14] = Aqueous solubility of compound by HPLC analysis; assay type: physicochemical
[15] = tested on: SGC-7901; assay: Antiproliferative activity against human SGC-7901 cells assessed as inhibition of cell growth incubated for 72 hrs by MTT assay; assay type: functional, cell-based; conditions: SGC-7901, 72 h
[16] = tested on: MCF7; assay: Antiproliferative activity against human MCF7 cells assessed as inhibition of cell growth incubated for 72 hrs by MTT assay; assay type: functional, cell-based; conditions: MCF7, 72 h
[17] = tested on: LoVo; assay: Cell cycle arrest in human LoVo cells assessed as accumulation of cells at G1 phase cells at 10 nM incubated for 24 hrs by […]PI staining based flow cytometric analysis (reference value: 29.69 %); assay type: functional
[18] = tested on: HCT-116; assay: Antiproliferative activity against human […] cells assessed as inhibition of cell growth incubated for 72 hrs by MTT assay; assay type: functional, cell-based; conditions: HCT-116, 72 h
[19] = tested on: LoVo; assay: Cell cycle arrest in human LoVo cells assessed as accumulation of cells at S phase cells at 30 nM incubated for 24 hrs by […]PI staining based flow cytometric analysis (reference value: 54.99 %); assay type: functional
[20] = Potency index, ratio of topotecan IC50 to test compound IC50 for antiproliferative activity against human LoVo cells assessed as inhibition of cell growth incubated for 72 hrs by MTT assay; assay type: functional
[21] = tested on: MGC-803; assay: Antiproliferative activity against human MGC-803 cells assessed as inhibition of cell growth incubated for 72 hrs by MTT assay; assay type: functional, cell-based; conditions: MGC-803, 72 h
[22] = tested on: HT-29; assay: Antitumor activity against human HT-29 cells xenografted in male BALB/c nude mouse assessed as tumor growth inhibition at 40 mg/kg, ip administered once daily for 14 days relative to control; assay type: functional; conditions: HT-29, 336 h, time 14 day, read-out: TGI
[23] = tested on: LoVo; assay: Antiproliferative activity against human LoVo cells assessed as inhibition of cell growth incubated for 72 hrs by MTT assay; assay type: functional, cell-based
[24] = tested on: LoVo; assay: Induction of morphological changes in human LoVo cells assessed as appearance of contracted nucleus incubated for 24 hrs by Giemsa staining based microscopic analysis; assay type: functional, cell-based; conditions: dose 10-90 nM
[25] = tested on: SK-HEP1; assay: Antiproliferative activity against human SK-HEP1 cells assessed as inhibition of cell growth incubated for 72 hrs by MTT assay; assay type: functional, cell-based; conditions: SK-HEP1, 72 h
[26] = tested on: Huh-7; assay: Antiproliferative activity against human Huh-7 cells assessed as inhibition of cell growth incubated for 72 hrs by MTT assay; assay type: functional, cell-based; conditions: Huh-7, 72 h
[27] = tested on: RKO; assay: Cell cycle arrest in human RKO cells assessed as accumulation of cells at G1 phase at 10 nM incubated for 24 hrs by […]PI staining based flow cytometric analysis (reference value: 35.29 %); assay type: functional
[28] = Stability of compound at pH 7.4 assessed as residual rate measured after 2 days; assay type: physicochemical; conditions: buffer, time 2 day, read-out: Stability
[29] = tested on: LoVo; assay: Induction of apoptosis in human LoVo cells assessed as apoptosis rate at 90 nM incubated for 24 hrs by Annexin V/PI staining based flow cytometric analysis (reference value: 4.71 %); assay type: functional

Compound: CC(C)(C)OC(=O)N[C@@H](CCC(N)=O)C(=O)Oc1ccc2[nH]c3c(c2c1)CCN1C(=O)c2cc(F)ccc2N(c2cccc(F)c2)[C@H]31
- Activity [1]: 86.7%
- remaining at 48 h [2]: 67.8%
- Activity [3]: Dose-dependent-effect
- half-life [4]: 36 min
- Activity [5]: 56.8%
- Activity [6]: 42.5%
- Retention_time [7]: 6.24 min
- Cmax [8]: 7080 ng/mL
- inhibition [9]: Active
- Activity [10]: 10.27%
- Activity [11]: 25.51%
- Activity [12]: Dose-dependent-effect
- remaining at 48 h [13]: 60.1%
- solubility [14]: 11.4 µg/mL (≈ 17.7 µM)
- IC50 [15]: 490 nM
- IC50 [16]: 600 nM
- Activity [17]: 26.62%
- IC50 [18]: 260 nM
- Activity [19]: 26.97%
- Ratio IC50 [20]: 3.4
- IC50 [21]: 120 nM
- inhibition in vivo at 40 mg/kg [22]: 70.1%
- IC50 [23]: 70 nM
- Activity [24]: Dose-dependent-effect
- IC50 [25]: 870 nM
- IC50 [26]: 370 nM
- Activity [27]: 29.55%
- remaining at 48 h [28]: 40.2%
- Activity [29]: 36.4%
